From US8329645B2, “Polymyxin derivatives and uses thereof” (priority 2008, dated 2012)

Tests used:
E. coli IH3080 [1] = assay: Growth inhibition around wells on LB agar plates; format: cell-based, Escherichia coli
Protocol: Peptides synthesized in Example 1, all carrying at least two (2) but not more than three (3) positive charges, were studied for their ability to inhibit the growth of E. coli. This was tested employing LB agar (LB Agar Lennox, Difco, BD, Sparks, Md., U.S.A) plates. The indicator organism E. coli IH3080 (K1:O018) was an encapsulated strain originally isolated from a neonate suffering from meningitis (Vaara et al. 1984) and obtained from National Public Health Institute, Helsinki, Finland.
(§1) From an overnight-grown culture of IH3080 on LB agar, a suspension of approx. 10^8 cells/ml was prepared in 0.9% NaCl. Aliquots of this suspension were then pipetted on the agar plates and the plates were gently shaken to spread the suspension evenly on the entire surface of the plate. Thereafter, the unabsorbed part of the suspension was removed by using a Pasteur pipette. After the surface had dried, small wells (diameter, 2 mm) were drilled on the plates (five wells per plate) by using a sterile sharp-edged narrow metal tube, single-use pipette tip, and vacuum suction. An alternative method used a swab to spread the inoculum. […] Controls included 0.9% NaCl solution without the compound to be tested. The plates were then incubated for 18 h at 37° C. whereafter the diameters of growth inhibition zones around each well were measured; the diameter of the well itself was not reduced. Finally, the diameters were converted to surface areas of growth inhibition (in square mm).

[2] = test system: Acinetobacter baumannii ATCC 19606; assay: Growth inhibition around wells on LB agar plates; format: cell-based; conditions: A. baumannii ATCC 19606
Protocol: as §1
(§2) Direct antibacterial activity of sixteen NAB compounds against Acinetobacter baumannii ATCC 19606 and Pseudomonas aeruginosa ATCC 27853 was tested by using the susceptibility determination method described in Example 2. Five compounds (NAB7062, NAB734, NAB737, NAB739, and NAB740) had very notable activity against A. baumannii. […] The antibacterial activity of NAB739 and NAB740 were as strong as or even stronger than that of polymyxin B.

[3] = test system: Pseudomonas aeruginosa ATCC 27853; assay: Growth inhibition around wells on LB agar plates; format: cell-based; conditions: Ps. aeruginosa ATCC 27853
Protocol: (§3) From an overnight-grown culture of IH3080 on LB agar, a suspension of approx. 10^8 cells/ml was prepared in 0.9% NaCl. Aliquots of this suspension were then pipetted on the agar plates and the plates were gently shaken to spread the suspension evenly on the entire surface of the plate. Thereafter, the unabsorbed part of the suspension was removed by using a Pasteur pipette. After the surface had dried, small wells (diameter, 2 mm) were drilled on the plates (five wells per plate) by using a sterile sharp-edged narrow metal tube, single-use pipette tip, and vacuum suction. An alternative method used a swab to spread the inoculum. Samples (4 μl and 10 μl) of the peptide solution in 0.9% NaCl (at concentrations of 1 μg/ml and 0.1 μg/ml) were then pipetted to the wells and the sample fluids were allowed to absorb. Controls included 0.9% NaCl solution without the compound to be tested. The plates were then incubated for 18 h at 37° C. whereafter the diameters of growth inhibition zones around each well were measured; the diameter of the well itself was not reduced. Finally, the diameters were converted to surface areas of growth inhibition (in square mm).
as §2

E. coli IH3080 [4] = assay: Sensitization to rifampin: growth inhibition around wells on LB plates containing rifampin; format: cell-based, Escherichia coli; conditions: 4 μg of compound
Protocol: as §3

A. baumannii ATCC 19606 = assay: as above; format: cell-based, Acinetobacter baumannii; conditions: 4 μg
[5] = test system: Ps. aeruginosa ATCC 27853; assay: as above; format: cell-based, Pseudomonas aeruginosa; conditions: 4 μg

Substance | growth inhibition around a well (E. coli IH3080 [1]; 4 μg of compound per well) | growth inhibition around a well (E. coli IH3080 [1]; 10 μg of compound per well) | growth inhibition around a well ([2]; 4 μg) | growth inhibition around a well ([2]; 10 μg) | growth inhibition around a well ([3]; 4 μg) | growth inhibition around a well ([3]; 10 μg) | growth inhibition around a well in the presence of rifampin (E. coli IH3080 [4]; rifampin 0 μg/ml) | growth inhibition around a well in the presence of rifampin (E. coli IH3080 [4]; rifampin 0.1 μg/ml) | growth inhibition around a well in the presence of rifampin (E. coli IH3080 [4]; rifampin 1.0 μg/ml) | growth inhibition around a well in the presence of rifampin (A. baumannii ATCC 19606; rifampin 0 μg/ml) | growth inhibition around a well in the presence of rifampin (A. baumannii ATCC 19606; rifampin 0.1 μg/ml) | growth inhibition around a well in the presence of rifampin (A. baumannii ATCC 19606; rifampin 0.3 μg/ml) | growth inhibition around a well in the presence of rifampin ([5]; rifampin 0 μg/ml) | growth inhibition around a well in the presence of rifampin ([5]; rifampin 0.1 μg/ml) | growth inhibition around a well in the presence of rifampin ([5]; rifampin 0.3 μg/ml)
OA-Ala-Thr-DSer-cy[Dab-Dab-DPhe-Leu-Dab-Dab-Thr-] [NAB 749] | 113 square millimeters | 158 square millimeters | 20 square millimeters | 38 square millimeters | 20 square millimeters | 28 square millimeters | 133 square millimeters | 133 square millimeters | 177 square millimeters | 20 square millimeters | 154 square millimeters | 201 square millimeters | 20 square millimeters | 20 square millimeters | 13 square millimeters
OA-Thr-Abu-cy[Dab-Dab-DLeu-Leu-Dab-Dab-Thr-] [NAB 718] | 0 square millimeters | 0 square millimeters | 0 square millimeters | 0 square millimeters | 0 square millimeters | 0 square millimeters | 0 square millimeters | 13 square millimeters | 133 square millimeters | 0 square millimeters | 0 square millimeters | 38 square millimeters | 0 square millimeters | 0 square millimeters | 0 square millimeters
OA-Thr-Abu-cy[Dab-Dab-DPhe-Leu-Dab-Dab-Leu-] [NAB 719] | 7 square millimeters | 50 square millimeters | 0 square millimeters | 0 square millimeters | 0 square millimeters | 0 square millimeters | 7 square millimeters | 79 square millimeters | 95 square millimeters | 0 square millimeters | 154 square millimeters | 133 square millimeters | 0 square millimeters | 0 square millimeters | 7 square millimeters
OA-Thr-Asn-cy[Dab-Dab-DPhe-Leu-Dab-Dab-Thr-] [NAB 746] | 0 square millimeters | 13 square millimeters | 0 square millimeters | 0 square millimeters | 0 square millimeters | 20 square millimeters | 0 square millimeters | 79 square millimeters | 95 square millimeters | 0 square millimeters | 64 square millimeters | 95 square millimeters | 0 square millimeters | 7 square millimeters | 0 square millimeters
OA-Thr-DAla-cy[Dab-Dab-DPhe-Thr-Dab-Dab-Thr-] [NAB 738] | 0 square millimeters | 64 square millimeters | 0 square millimeters | 0 square millimeters | 0 square millimeters | 0 square millimeters | 0 square millimeters | 133 square millimeters | 177 square millimeters | 0 square millimeters | 95 square millimeters | 154 square millimeters | 0 square millimeters |  | 13 square millimeters
OA-Thr-Dab-cy[Dab-Dab-DPhe-Leu-Abu-Dab-Thr-] [NAB 716] |  | 64 square millimeters | 0 square millimeters | 0 square millimeters | 0 square millimeters | 0 square millimeters | 13 square millimeters | 133 square millimeters | 165 square millimeters | 0 square millimeters | 0 square millimeters | 64 square millimeters | 0 square millimeters | 0 square millimeters | 0 square millimeters
OA-Thr-Dab-cy[Dab-Dab-DPhe-Leu-Dab-Abu-Thr-] [NAB 717] | 0 square millimeters | 0 square millimeters | 0 square millimeters | 0 square millimeters | 0 square millimeters | 0 square millimeters | 0 square millimeters | 71 square millimeters | 95 square millimeters | 0 square millimeters | 0 square millimeters | 50 square millimeters | 0 square millimeters | 0 square millimeters | 0 square millimeters
